Data set [1] relates to Protein cereblon/GTPase KRas (Homo sapiens), P01116+Q96SW2 [G12D]. Description: PROTAC activity at CRBN/KRAS G12D mutant in human ASPC1 cells assessed as induction of KRAS G12D mutant degradation at 100 nM measured after 24 hrs by immunoblot analysis relative to control. It is filed as cell-based.
For data set [2] the test system is unchanged. Kind of data set: PROTAC activity at CRBN/KRAS G12D mutant in human ASPC1 cells assessed as induction of KRAS G12D mutant degradation at 1 uM measured after 24 hrs by immunoblot analysis relative to control. It is filed as cell-based.
The test system is the same in data set [3]. Kind of data set: PROTAC activity at CRBN/KRAS G12D mutant in human ASPC1 cells assessed as induction of KRAS G12D mutant degradation at 50 nM measured after 24 hrs by immunoblot analysis relative to control. It is filed as cell-based. (In general: Immunoblotting shows a protein as a band on a membrane.)
For data set [4] the test system is unchanged. Kind of data set: PROTAC activity at CRBN/KRAS G12D mutant in human ASPC1 cells assessed as induction of KRAS G12D mutant degradation at 5 uM measured after 24 hrs by immunoblot analysis relative to control. It is filed as cell-based.
The test system is the same in data set [5]. Description: PROTAC activity at CRBN/KRAS G12D mutant in human ASPC1 cells assessed as induction of KRAS G12D mutant degradation at 5 nM measured after 24 hrs by immunoblot analysis relative to control. It is filed as cell-based.
The subject of data set [6] is GP2d. Description: PROTAC activity at CRBN/KRAS G12D mutant in human GP2d cells assessed as induction of KRAS G12D mutant degradation at 0.004 to 250 nM measured after 24 hrs by immunoblot analysis. In kind it is cell-based. To be noted: dose 0.004-250 nM.
In data set [7] the target is GTPase KRas (Homo sapiens, UniProt P01116, G12D). Kind of data set: Binding affinity to 6 His-tagged GDP-loaded human KRAS G12D mutant assessed as GDP-GTP exchange preincubated for 30 mins followed by GTP addition for 30 mins by HTRF method.
The test system of data set [8] is Protein cereblon/GTPase KRas (Homo sapiens), P01116+Q96SW2 [G12D]. Description: PROTAC activity at CRBN/KRAS G12D mutant in human ASPC1 cells assessed as induction of KRAS G12D mutant degradation at 15 nM measured after 24 hrs by immunoblot analysis relative to control. It is filed as cell-based.
A short description of data set [9]: Antiproliferative activity against human GP2d cells harbouring KRAS G12D mutant assessed as inhibition of cell growth measured after 72 hrs by Cell titer glo method. In kind it is functional, cell-based. On the technique in general: ATP-based viability assays read luminescence as a measure of living cells.
The test system of data set [10] is ASPC1. Kind of data set: Antiproliferative activity against human ASPC1 cells harbouring KRAS G12D mutant assessed as inhibition of cell growth measured after 72 hrs by Cell titer glo method. To be noted: ASPC1, 72 h. In kind it is functional, cell-based.
The nature of data set [11]: Inhibition of ERK phosphorylation in human ASPC1 cells harbouring KRAS G12D mutant measured after 24 hrs. It is filed as cell-based. To be noted: ASPC1, 24 h.
A short description of data set [12]: Inhibition of ERK phosphorylation in human GP2d cells harbouring KRAS G12D mutant measured after 24 hrs. It is filed as cell-based.
A short description of data set [13]: Antiproliferative activity against human PK-59 cells harbouring KRAS G12D mutant assessed as inhibition of cell growth measured after 72 hrs by Cell titer glo method. It is filed as functional, cell-based. The following applies: PK-59, 72 h.
Data set [14] is described as follows: Inhibition of ERK phosphorylation in human PK-59 cells harbouring KRAS G12D mutant measured after 24 hrs. In kind it is cell-based. The following applies: PK-59, 24 h.
Data set [15] in a line: Antitumor activity against human PK-59 cells xenografted in female Balb/c nude mouse model assessed as tumor growth inhibition at 1.81 mg/kg, iv QW measured after 28 days relative to control. In kind it is functional. The following applies: PK-59, 672 h, time 28 day, read-out: TGI. In general terms: In xenograft studies the graft and the host belong to different species.

Data set [16] deals with AGS. Description: Antiproliferative activity against human AGS cells harbouring KRAS G12D mutant assessed as inhibition of cell growth measured after 72 hrs by Cell titer glo method. In kind it is functional, cell-based.
A short description of data set [17]: Inhibition of Raf (unknown origin)/GTP loaded KRas G12D mutant interaction preincubated for 15 mins followed by anti-tag1-eu3 and Tag2-XL665 antibody addition and measured for 120 mins by HTRF method. The arrangement: species or system Homo sapiens.
Data set [18] in a line: Toxicity in female Balb/c nude mouse xenografted with human PK-59 cells assessed as change in body weight at 1.8 mg/kg, iv QW measured after 28 days. In kind it is organism-based. To be noted: in vivo, 672 h, time 28 day.
Data set [19] is described as follows: Inhibition of ERK phosphorylation in human AGS cells harbouring KRAS G12D mutant measured after 24 hrs. It is filed as cell-based.

By IC50 is commonly meant the concentration that inhibits the measured activity by half.

The structures appear in SMILES notation. The source made the active and inactive calls. The calls are words filed in the database; no cut-off is given here.

Sequence of Protein cereblon/GTPase KRas (Homo sapiens), P01116+Q96SW2 [G12D] (P01116 whole entry G12D): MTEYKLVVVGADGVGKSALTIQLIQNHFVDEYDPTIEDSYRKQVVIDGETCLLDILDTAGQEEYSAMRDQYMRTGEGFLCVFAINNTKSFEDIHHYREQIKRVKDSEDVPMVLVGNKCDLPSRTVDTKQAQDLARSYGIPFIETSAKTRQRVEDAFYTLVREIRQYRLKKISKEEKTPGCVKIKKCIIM
Sequence of Protein cereblon/GTPase KRas (Homo sapiens), P01116+Q96SW2 [G12D] (Q96SW2 whole entry partner): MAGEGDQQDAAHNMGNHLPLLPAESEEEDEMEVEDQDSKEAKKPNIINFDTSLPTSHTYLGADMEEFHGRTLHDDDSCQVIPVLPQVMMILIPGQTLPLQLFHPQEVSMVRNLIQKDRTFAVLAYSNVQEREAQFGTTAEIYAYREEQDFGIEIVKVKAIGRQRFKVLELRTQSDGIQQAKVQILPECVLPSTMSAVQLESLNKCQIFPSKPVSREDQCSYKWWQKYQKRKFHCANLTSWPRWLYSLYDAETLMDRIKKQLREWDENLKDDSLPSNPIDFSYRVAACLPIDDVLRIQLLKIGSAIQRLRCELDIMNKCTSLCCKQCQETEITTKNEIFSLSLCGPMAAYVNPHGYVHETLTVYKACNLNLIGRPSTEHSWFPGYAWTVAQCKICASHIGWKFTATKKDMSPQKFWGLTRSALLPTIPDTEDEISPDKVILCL
Sequence of GTPase KRas (P01116 whole entry G12D): as the sequence (P01116 whole entry G12D) above

Regarding `C#Cc1c(F)ccc2cc(O)cc(-c3ncc4c(N5CC6CCC(C5)N6)nc(OCCCN5CCN(C(=O)CN6CCN(c7ccc8c(c7)C(=O)N(C7CCC(=O)NC7=O)C8=O)CC6)CC5)nc4c3F)c12` (stereo not given), the Activity is 10% in data set [1], 21% in data set [2], 9% in data set [3] and 23% in data set [4].
Consider `C#Cc1c(F)ccc2cc(O)cc(-c3ncc4c(N5CC6CCC(C5)N6)nc(OCC5(CN6CCC7(CC6)CC(N6CCC(c8cccc(C9CCC(=O)NC9=O)c8)CC6)C7)CC5)nc4c3F)c12` (stereo not given), for which the figures for the Activity in [5] and in [3] were -8% and -20%, respectively.
As for `C#Cc1c(F)ccc2cc(O)cc(-c3ncc4c(N5CC6CCC(C5)N6)nc(OCC5(CN6CCC7(CC6)CC(N6CCC(c8cccc(N9CCC(=O)NC9=O)c8)CC6)C7)CC5)nc4c3F)c12`, the Activity in [5] is 0%; in [3] it was -10%.
On to `C#Cc1c(F)ccc2cc(O)cc(-c3ncc4c(N5CC6CCC(C5)N6)nc(OCC5(CN6CCC7(CC6)CC(N6CCC(c8ccc(C9CCC(=O)NC9=O)cc8)CC6)C7)CC5)nc4c3F)c12` (stereo not given), for which the Activity in [5] is 32%; in data set [3], 81%.
`C#Cc1c(F)ccc2cc(O)cc(-c3ncc4c(N5CC6CCC(C5)N6)nc(OCC5(CN6CCN(c7ccc8c(c7)C(=O)N(C7CCC(=O)NC7=O)C8=O)CC6)CC5)nc4c3F)c12` (stereo not given): the Activity in data set [1] was 58%.
Turning to `C#Cc1c(F)ccc2cc(O)cc(-c3ncc4c(N5CC6CCC(C5)N6)nc(OCC5(CN6CCC7(CC6)CC(N6CCN(c8cccc9c8C(=O)N(C8CCC(=O)NC8=O)C9=O)CC6)C7)CC5)nc4c3F)c12` (stereo not given), the Activity in data set [5] came out at 21%; in data set [3], 34%.
For `C#Cc1c(F)ccc2cc(O)cc(-c3ncc4c(N5CC6CCC(C5)N6)nc(OCC5(CN6CCC7(CC6)CC(N6CCN(c8cc9c(cc8F)c(N8CCC(=O)N(C)C8=O)nn9C)CC6)C7)CC5)nc4c3F)c12`, in [6], the outcome was inactive. For the same molecule, the IC50 in [7] was found to be 4.02 nM.
Turning to `C#Cc1c(F)ccc2cc(O)cc(-c3ncc4c(N5CC6CCC(C5)N6)nc(OCC5(CN6CCN(C(=O)CN7CCN(c8ccc9c(c8)C(=O)N(C8CCC(=O)NC8=O)C9=O)CC7)CC6)CC5)nc4c3F)c12` (stereo not given), in [1], the Activity came out at 40%.
Regarding `C#Cc1c(F)ccc2cc(O)cc(-c3ncc4c(N5CC6CCC(C5)N6)nc(OCCCN5CCN(CC(=O)N6CCN(c7ccc8c(c7)C(=O)N(C7CCC(=O)NC7=O)C8=O)CC6)CC5)nc4c3F)c12` (stereo not given), the Activity in [1] is -1%; in data set [2], 4%; in data set [3], 1%; in [4], 9%.
For the molecule `C#Cc1c(F)ccc2cc(O)cc(-c3ncc4c(N5CC6CCC(C5)N6)nc(OCC5(CN6CCC7(CC6)CC(N6CCN(c8ccc(NC9CCC(=O)NC9=O)cc8F)CC6)C7)CC5)nc4c3F)c12` (stereo not given), the results for the Activity in data set [5] and in [3] were 54% and 64%, respectively.
Regarding `C#Cc1c(F)ccc2cc(O)cc(-c3ncc4c(N5CC6CCC(C5)N6)nc(OCC5(CN6CCC7(CC6)CC(N6CCC(c8ccc(NC9CCC(=O)NC9=O)cc8F)CC6)C7)CC5)nc4c3F)c12` (stereo not given), the Activity in data set [5] was found to be 84%; in [3], 79%.
On to `C#Cc1c(F)ccc2cc(O)cc(-c3ncc4c(N5CC6CCC(C5)N6)nc(OCCCN5CCN(CC(=O)N6CCN(c7cccc8c7C(=O)N(C7CCC(=O)NC7=O)C8=O)CC6)CC5)nc4c3F)c12` (stereo not given), for which the Activity amounted to 0% in data set [1], 7% in [2], 2% in [3] and 7% in data set [4].
Turning to `C#Cc1c(F)ccc2cc(O)cc(-c3ncc4c(N5CC6CCC(C5)N6)nc(OCC5(CN6CCC7(CC6)CC(N6CCN(c8ccc9c(c8)C(=O)N(C8CCC(=O)NC8=O)C9=O)CC6)C7)CC5)nc4c3F)c12` (stereo not given), the Activity in data set [5] worked out at 48%; in [3], 64%.
In the same order, the values of `C#Cc1c(F)ccc2cc(O)cc(-c3ncc4c(N5CC6CCC(C5)N6)nc(OCC5(CN6CCC7(CC6)CC(N6CCN(c8ccc(N9CCC(=O)NC9=O)cc8)CC6)C7)CC5)nc4c3F)c12` are 6% and 2%.
In the case of `C#Cc1c(F)ccc2cc(O)cc(-c3ncc4c(N5CC6CCC(C5)N6)nc(OCC5(CN6CCC7(CC6)CC(N6CCC(c8ccc9c(c8)C(=O)N(C8CCC(=O)NC8=O)C9=O)CC6)C7)CC5)nc4c3F)c12` (stereo not given), the Activity in data set [5] is 37%; in data set [3], 59%.
Consider `C#Cc1c(F)ccc2cc(O)cc(-c3ncc4c(N5CC6CCC(C5)N6)nc(OCC5(CN6CCC7(CC6)CC(N6CCC(c8cccc9c8C(=O)N(C8CCC(=O)NC8=O)C9=O)CC6)C7)CC5)nc4c3F)c12` (stereo not given), for which the Activity in [5] is -3%; in [3], -12%.
Turning to `C#Cc1c(F)ccc2cc(O)cc(-c3ncc4c(N5CC6CCC(C5)N6)nc(OCC5(CN6CCC7(CC6)CC(N6CCN(c8ccc(NC9%10CC(C9)C(=O)NC%10=O)cc8F)CC6)C7)CC5)nc4c3F)c12`, the results for the Activity in [5] and in [3] were 68% and 67%, respectively.
As to `C#Cc1c(F)ccc2cc(O)cc(-c3ncc4c(N5CC6CCC(C5)N6)nc(OCCCN5CCN(C(=O)CN6CCN(c7cccc8c7C(=O)N(C7CCC(=O)NC7=O)C8=O)CC6)CC5)nc4c3F)c12` (stereo not given), the Activity was 8% in [1], 0% in data set [2], 12% in data set [3] and 7% in data set [4].
Consider `C#Cc1c(F)ccc2cc(O)cc(-c3ncc4c(N5CC6CCC(C5)N6)nc(OCC5(CN6CCC7(CC6)CCN(c6ccc8c(c6)C(=O)N(C6CCC(=O)NC6=O)C8=O)CC7)CC5)nc4c3F)c12` (stereo not given), for which the Activity in [8] is 32%; in data set [3] it was 57%.
For the molecule `C#Cc1c(F)ccc2cc(O)cc(-c3ncc4c(N5CC6CCC(C5)N6)nc(OC[C@@]56CCCN5C[C@H](F)C6)nc4c3F)c12` [MRTX-1133], the IC50 in [9] was determined as 0.91 nM; in data set [10], 56.8 nM; in data set [11], 20.3 nM; in [12], 0.87 nM; in data set [13] it was 2.9 nM; in data set [14], 4.2 nM. Moreover, the half-maximal inhibitory concentration (IC50) is 2.43 nM in [16], 1.43 nM in data set [17] and 24.7 nM in [19]. In data set [15], the inhibition in vivo at 1.81 mg/kg stood at 58.7%. For the same molecule, the Activity result in [18] is listed as “Non-toxic”.
